According to US8222298B2, “Methods of correcting imbalance between bone resorption and bone formation and kits and compositions therefor” (CHU Sainte-Justine, priority 2007, dated 2012):

Experiments:
[1] = tested on: RAW264.7 cells; assay: Osteoclast differentiation measured by TRAP staining of RANKL-treated RAW264.7 cells; type: cell-based, mouse; settings: 2.5 or 6 days
Protocol: Cellular model RAW264.7 (mouse macrophage cell line, ATCC # TIB-71). These cells differentiate in osteoclast-like cells upon addition of receptor activator of nuclear factor-kappaB ligand (RANKL). Cell differentiation usually occurs within two days. Cells were studied at 2.5 (early stage), 6 and 10 days (late stage) following RANKL addition. Experimental treatments: In some experiments, 4-P-PDOT was added to the cells at the same time as RANKL at a concentration of 10^−6M. Cells cultured with RANKL only served as controls. In order to assess osteoclastogenesis, RAW264.7 cells were cultured with RANKL for 2.5 or 6 days with and without 10^−6M of 4-P-PDOT. RAW264.7 cells were fixed with paraformaldehyde and stained for TRAP activity (marker of active osteoclasts) at 2.5 and 6 days of differentiation. Positive-stained cells with more than 3 nuclei were counted in eight different microscopic fields done in quadruplicate. Results are presented in FIGS. 3A and B for the 2.5 or 6 days experiments, respectively. […] The effect of melatonin on osteoclastogenesis and osteoclast function was assessed with the same methods as those described in Examples 2 and 3 above except that cells were grown in the presence of 10^−9M of melatonin in addition to RANKL. In some experiments, melatonin was added along with 10^−6M of 4-P-PDOT. Cells treated with RANKL alone served as controls.

[2] = tested on: adenylyl cyclase activity of forskolin-stimulated RAW 264.7 cells; assay: cAMP production in forskolin-stimulated RAW264.7 cells (enzyme immunoassay); type: cell-based, mouse; settings: increasing doses, 10^-4M forskolin, 30 minutes at 37° C., no RANKL
Protocol: RAW264.7 cells were grown in culture medium without RANKL until confluence (7 days). Cells were then incubated with 10^−4M of forskolin in presence of various concentrations of melatonin (FIG. 9, panel A), 4-P-PDOT (FIG. 9, panel B) or both (FIG. 9, panel C). Concentrations ranged from 10^−11 to 10^−5M for melatonin and from […] to 10^−4M for 4-P-PDOT. In the double treatment group, cells were treated with increasing concentrations of melatonin (10^−11 to 10^−5M) to which 10^−6M of 4-P-PDOT was added. After 30 minutes incubation at 37° C., cells were lysed in TRIS-EDTA buffer supplemented with protease and phosphodiesterase inhibitors at 4° C. The cAMP content was determined in duplicate in 200 μL aliquot of the supernatant using an enzyme immunoassay kit. […]

[3] = tested on: RAW264.7 cells; assay: Cell apoptosis by DeadEnd fluorometric TUNEL system; type: cell-based, mouse; settings: 10^-6M 4-P-PDOT with RANKL, 6 days
Protocol: RAW264.7 cells were grown in culture medium with RANKL for 6 days with or without 10^−6M of 4-P-PDOT. Cells were fixed in 3.7% of paraformaldehyde and permeabilized with 0.2% Triton™-X-100. A subset of cells were treated with DNase for 10 minutes at room temperature and served as positive controls. Cell apoptosis was determined using the DeadEnd™ fluorometric TUNEL system. This method measures fragmented DNA through the incorporation of fluorescent-labeled d-UTP. Permeabilized cells were incubated in equilibration buffer with a nucleotide mix and the enzyme that catalyzes the reaction for 1 hour at 37° C. Negative controls were incubated without the enzyme. After several rinses in SSC and PBS, cells were mounted and visualized by fluorescence microscopy.

[4] = tested on: RAW264.7 cells; assay: Cell proliferation by tritiated thymidine incorporation; type: cell-based, mouse; settings: 10^-6M 4-P-PDOT with RANKL, 2.5 days
Protocol: After 24 hour attachment, RAW264.7 cells were serum-starved overnight and then grown for 2.5 days in culture medium containing RANKL and melatonin (10^−7 or 10^−6M), or melatonin (10^−6M) and a melatonin receptor non-specific antagonist, luzindole (10^−8M), or melatonin (10^−6M) and 4-P-PDOT (10^−6M), or luzindole (10^−6M), or 4-P-PDOT (10^−6M) alone. Thymidine incorporation was assayed by the addition of 0.02 μCi/μL of tritiated thymidine to the medium 8 hours before cell harvest. Cells were then washed twice with ice-cold PBS and three times with cold 5% trichloroacetic acid. Cells were lysed in a mixture of 0.5N NaOH and 0.5% SDS and radioactivity of the lysates determined using a beta-counter.

[5] = tested on: RANK; assay: RANK expression by RT-PCR in RAW264.7 cell-derived osteoclasts; type: cell-based, mouse; settings: RT-PCR after 6 days of treatment; 10^-9M melatonin, 10^-6M 4-P-PDOT
Protocol: The effect of melatonin and of 4-P-PDOT on the expression of various genes involved in osteoclast differentiation and activity was evaluated by RT-PCR after 6 days of treatment.

[6] = tested on: male C57Bl/6j mice; assay: Low-BMD mouse model: weight gain and bone densitometry over 35 days; type: in vivo; settings: 10 mg/kg intraperitoneally three times a week, first 35 days
Protocol: In parallel, control animals received injections of a solution made of water and ethanol (20%). During this period, animals were subjected to weekly bone densitometric measurements (BMD and bone mineral content (BMC)) with a PixiMus™ II bone densitometer, and blood and urine collection. Scan of individual spine, long bones (femurs), were performed. Scans of tibiae, radius and mandible were also performed. To monitor bone formation rate, 25 mg/kg of tetracycline hydrochloride was injected on days 10 and 20 following the beginning of the injections. Bone histomorphometry for bone formation and resorption static and dynamic parameters were also measured. The biochemical markers used are alkaline phosphatase for bone formation, and urinary deoxypyridinoline for bone resorption.

[7] = tested on: male C57BL/6 mice; assay: Femur section histology (TRAP and Goldner staining) in treated mice; type: in vivo, mouse; settings: 10 mg/kg intraperitoneally three times a week, 4 weeks
Protocol: The effect of 4-P-PDOT on the formation of bones has also been tested using 4-week old male C57BL/6 mice following weaning. Mice were injected intraperitoneally with 10 mg/kg of 4-P-PDOT three times a week for 4 weeks (28 days). After this period, femur sections were stained to quantify tartrate-resistant acidic phosphatase- (TRAP-) positive osteoclasts (i.e. “active” osteoclasts). […] A Goldner staining was also performed on the femur sections in order to quantify the total number of osteoclasts.

[8] = tested on: RAW 264.7 cells; assay: Bone resorption assay on resorbable bone analog (BioCoat Osteologic discs); type: cell-based, mouse; settings: 10^-9M melatonin with RANKL, 10 days culture
Protocol: Osteoclast activity was determined using a resorbable bone analog (BioCoat™ Osteologic™ discs, BD Biosciences). RAW 264.7 cells were plated on 16-well plates coated with this analog. 24 hours post-plating, cells were treated with RANKL alone or with RANKL+10^−6M of 4-P-PDOT for a period of 10 days. In another set of experiments, 10^−6M of 4-P-PDOT was added after 6 days of culture with RANKL and cells were cultured for an additional 4 days in order to examine the effects of 4-P-PDOT on more mature cells. At the end of the culture period, cells were detached with bleach and bone analog stained with 5% silver nitrate according to manufacturer's instructions to reveal the presence of resorbed bone area (resorption pits). The number of pits and the area of resorbed bone were quantified in 8 microscopic fields in duplicate using Bioquant™ software. The effect of melatonin on osteoclastogenesis and osteoclast function was assessed with the same methods as those described in Examples 2 and 3 above except that cells were grown in the presence of 10^−9M of melatonin in addition to RANKL. In some experiments, melatonin was added along with 10^−6M of 4-P-PDOT. Cells treated with RANKL alone served as controls.

Row | Compound | number of TRAP+ cells (osteoclast differentiation) ([1]; 10^-6M 4-P-PDOT with RANKL) | cAMP production [2] | apoptosis, treated vs. untreated cells [3] | cell proliferation, treated vs. untreated cells [4] | RANK's expression [5] | bone mineral accretion at the spine and whole body level vs vehicle-injected animals [6] | weight gain vs vehicle-injected animals [6] | number of active (TRAP-positive) osteoclasts in femur sections vs control mice [7] | number of total osteoclasts (Goldner staining) in femur sections [7] | reduction in the relative number of active osteoclasts vs vehicle-treated mice [7] | relative number of total osteoclasts vs vehicle-treated mice [7] | trabecular bone (Goldner staining) in femur sections [7] | effect on osteoclastogenesis (TRAP-positive cells) ([1]; 10^-9M melatonin with RANKL) | bone resorption (resorption pits, resorbed area) [8]
1 | CCC(=O)NC1Cc2ccccc2C(c2ccccc2)C1 (stereo not shown) [4-P-PDOT, 4-phenyl-2-propionamidotetralin] | reduces the number of TRAP+ cells | cAMP production increases | comparable | comparable | significant decrease | increase | increase | significant reduction | increased | about 3 fold | increased | increased |  | 
2 | COc1ccc2[nH]cc(CCNC(C)=O)c2c1 [melatonin] |  | inhibited |  |  | significant decrease |  |  |  |  |  |  |  | did not have a significant effect | significantly reduced bone resorption
